Reference: US11590139B2, “Substituted aminopurine compounds, compositions thereof, and methods of treatment therewith” (Signal Pharmaceuticals, LLC, priority 2014, dated 2023)

System: Lox-IMVI melanoma cell line
Assay: Lox-IMVI anti-proliferative assay (growth inhibition, Cell Titer-Glo)
Assay type: cell-based, human
Settings: Homo sapiens; IC50 activity level in the cell-based Lox-IMVI anti-proliferative assay; read-out: Activity
Experimental: Determination of the Growth Inhibitory Effect of Aminopurine Compounds. The Lox-IMVI melanoma cell line (Source: NCI-DCTD, catalog No. 0507283) was maintained and tested in RPMI+10% FBS. The seeding density for the cell line was optimized to ensure assay linearity in 384-well plates.
Increasing concentrations of Aminopurine Compound (0.5 nM to 10 μM) were spotted in a 10-point serial dilution fashion (3-fold dilution) in duplicate within the plate via an acoustic dispenser (EDC ATS-100) into an empty 384-well plate. The dimethyl sulfoxide (DMSO) concentration was kept constant for a final assay concentration of 0.2% DMSO. Prior to testing, cells were grown and expanded in culture flasks to provide sufficient amounts of starting material. Cells were then diluted to their desired densities and added directly to the compound-spotted 384-well plates. Cells were allowed to grow for 72 hours in 5% CO2 at 37° C. At the time when exposure of cells to compound began (t0), initial cell number was assessed via a viability assay (Cell Titer-Glo) by quantifying the level of luminescence generated by adenosine-5′-triphosphate (ATP) present in viable cells. After 72 hours, cell viability of compound-treated cells was assessed via Cell Titer-Glo Luminescent Cell Viability Assay (Promega Corporation, Madison, Wis.) and read for luminescence.
All data was normalized and represented as a percentage of the DMSO-treated control cells after 72 h. Results were expressed as a IC50 value, which is the compound concentration required to inhibit 50% of the untreated control cells during the 72 hours of treatment.
A Four Parameter Logistic Model (Sigmoidal Dose-Response Model) was used to determine the compound's IC50. y=(A+((B−A)/(1+((C/x)^D))))
wherein: • A=YMin • B=YMax • C=EC50 • D=Hill Slope • IC50 is the compound concentration when Y=50% of DMSO control • Y=Luminescence unit
All inhibition curves were processed and evaluated using XLFit and Activity Base (IDBS).

| IC50 [nM] | Compound |
| --- | --- |
| > 1000 | CC(C)Nc1ncc2nc(Nc3c(Cl)cccc3Cl)n([C@H]3CC[C@@H](C(N)=O)CC3)c2n1 [Example 52] |
| < 250 | NC(=O)[C@H]1CC[C@@H](n2c(Nc3c(F)cc(F)cc3Cl)nc3cnc(NC4CCOCC4)nc32)CC1 [Example 53] |
| > 1000 | NC(=O)[C@H]1CC[C@@H](n2c(Nc3c(F)cccc3Cl)nc3cnc(NC4COC4)nc32)CC1 [Example 57, (1s,4s)-4-(8-(2-chloro-6-fluorophenylamino)-2-(oxetan-3-ylamino)-9H-purin-9-yl)cyclohexanecarboxamide] |
| > 1000 | Cc1cccc(F)c1Nc1nc2cnc(NC3CCOCC3)nc2n1[C@H]1CC[C@@H](C(N)=O)CC1 [Example 63, (1s,4s)-4-(8-(2-fluoro-6-methylphenylamino)-2-(tetrahydro-2H-pyran-4-ylamino)-9H-purin-9-yl)cyclohexanecarboxamide] |
| > 1000 | NC(=O)[C@H]1CC[C@@H](n2c(Nc3cc(Cl)c(F)cc3F)nc3cnc(NC4CCOCC4)nc32)CC1 [Example 64, (1s,4s)-4-(8-(5-chloro-2,4-difluorophenylamino)-2-(tetrahydro-2H-pyran-4-ylamino)-9H-purin-9-yl)cyclohexanecarboxamide] |
| 500 to 1000 | NC(=O)[C@H]1CC[C@@H](n2c(Nc3cc(F)c(Cl)cc3F)nc3cnc(NC4CCOCC4)nc32)CC1 [Example 70, (1s,4s)-4-(8-(4-chloro-2,5-difluorophenylamino)-2-(tetrahydro-2H-pyran-4-ylamino)-9H-purin-9-yl)cyclohexanecarboxamide] |
| 250 to 500 | NC(=O)[C@H]1CC[C@@H](n2c(Nc3ccc(Cl)c(F)c3F)nc3cnc(NC4CCOCC4)nc32)CC1 [Example 72, (1s,4s)-4-(8-(4-chloro-2,3-difluorophenylamino)-2-(tetrahydro-2H-pyran-4-ylamino)-9H-purin-9-yl)cyclohexanecarboxamide] |
| 250 to 500 | NC(=O)[C@H]1CC[C@@H](n2c(Nc3c(Cl)cc(Cl)cc3Cl)nc3cnc(N[C@@H]4CCOC4)nc32)CC1 [Example 76, (1S,4s)-4-(2-((R)-tetrahydrofuran-3-ylamino)-8-(2,4,6-trichlorophenylamino)-9H-purin-9-yl)cyclohexanecarboxamide] |
| > 1000 | NC(=O)[C@H]1CC[C@@H](n2c(Nc3c(Cl)cc(Cl)cc3Cl)nc3cnc(N[C@H]4CC[C@H](O)CC4)nc32)CC1 [Example 78, (1s,4s)-4-(2-((1r,4r)-4-hydroxycyclohexylamino)-8-(2,4,6-trichlorophenylamino)-9H-purin-9-yl)cyclohexanecarboxamide] |
| > 1000 | Cc1c(Cl)ccc(F)c1Nc1nc2cnc(NC3CCOCC3)nc2n1[C@H]1CC[C@@H](C(N)=O)CC1 [Example 79, (1s,4s)-4-(8-(3-chloro-6-fluoro-2-methylphenylamino)-2-(tetrahydro-2H-pyran-4-ylamino)-9H-purin-9-yl)cyclohexanecarboxamide] |

Continued, molecule first:

| Compound | IC50 [nM] |
| --- | --- |
| NC(=O)[C@H]1CC[C@@H](n2c(Nc3c(F)cc(F)cc3F)nc3cnc(NC4CCOCC4)nc32)CC1 [Example 11] | < 250 |
| NC(=O)[C@H]1CC[C@@H](n2c(Nc3c(F)cc(Cl)cc3Cl)nc3cnc(NC4CCOCC4)nc32)CC1 [Example 40] | < 250 |
| NC(=O)[C@H]1CC[C@@H](n2c(Nc3c(F)cccc3F)nc3cnc(NC4CCC4)nc32)CC1 [Example 42] | > 1000 |
| NC(=O)[C@H]1CC[C@@H](n2c(Nc3c(Cl)cccc3Cl)nc3cnc(NC4CCC4)nc32)CC1 [Example 51] | 500 to 1000 |
| NC(=O)[C@H]1CC[C@@H](n2c(Nc3c(F)cc(F)cc3F)nc3cnc(NC4COC4)nc32)CC1 [Example 55, (1s,4s)-4-(2-(oxetan-3-ylamino)-8-(2,4,6-trifluorophenylamino)-9H-purin-9-yl)cyclohexanecarboxamide] | > 1000 |
| NC(=O)[C@H]1CC[C@@H](n2c(Nc3c(Cl)cccc3Cl)nc3cnc(NC4COC4)nc32)CC1 [Example 56, (1s,4s)-4-(8-(2,6-dichlorophenylamino)-2-(oxetan-3-ylamino)-9H-purin-9-yl)cyclohexanecarboxamide] | > 1000 |
| NC(=O)[C@H]1CC[C@@H](n2c(Nc3cc(F)c(F)cc3F)nc3cnc(NC4CCOCC4)nc32)CC1 [Example 58, (1s,4s)-4-(2-(tetrahydro-2H-pyran-4-ylamino)-8-(2,4,5-trifluorophenylamino)-9H-purin-9-yl)cyclohexanecarboxamide] | 500 to 1000 |
| CC(C)Nc1ncc2nc(Nc3c(Cl)cc(Cl)cc3Cl)n([C@H]3CC[C@@H](C(N)=O)CC3)c2n1 [Example 59, (1s,4s)-4-(2-(isopropylamino)-8-(2,4,6-trichlorophenylamino)-9H-purin-9-yl)cyclohexanecarboxamide] | 500 to 1000 |
| NC(=O)[C@H]1CC[C@@H](n2c(Nc3ccc(Cl)cc3F)nc3cnc(NC4CCOCC4)nc32)CC1 [Example 60, (1s,4s)-4-(8-(4-chloro-2-fluorophenylamino)-2-(tetrahydro-2H-pyran-4-ylamino)-9H-purin-9-yl)cyclohexanecarboxamide] | 500 to 1000 |
| NC(=O)[C@H]1CC[C@@H](n2c(Nc3cccc(F)c3Cl)nc3cnc(NC4CCOCC4)nc32)CC1 [Example 61, (1s,4s)-4-(8-(2-chloro-3-fluorophenylamino)-2-(tetrahydro-2H-pyran-4-ylamino)-9H-purin-9-yl)cyclohexanecarboxamide] | > 1000 |
| NC(=O)[C@H]1CC[C@@H](n2c(Nc3cccc(Cl)c3Cl)nc3cnc(NC4CCOCC4)nc32)CC1 [Example 62, (1s,4s)-4-(8-(2,3-dichlorophenylamino)-2-(tetrahydro-2H-pyran-4-ylamino)-9H-purin-9-yl)cyclohexanecarboxamide] | > 1000 |
| NC(=O)[C@H]1CC[C@@H](n2c(Nc3cc(Cl)c(Cl)cc3Cl)nc3cnc(NC4CCOCC4)nc32)CC1 [Example 65, (1s,4s)-4-(2-(tetrahydro-2H-pyran-4-ylamino)-8-(2,4,5-trichlorophenylamino)-9H-purin-9-yl)cyclohexanecarboxamide] | > 1000 |
| NC(=O)[C@H]1CC[C@@H](n2c(Nc3ccc(F)c(F)c3F)nc3cnc(NC4CCOCC4)nc32)CC1 [Example 66, (1s,4s)-4-(2-(tetrahydro-2H-pyran-4-ylamino)-8-(2,3,4-trifluorophenylamino)-9H-purin-9-yl)cyclohexanecarboxamide] | 500 to 1000 |
| NC(=O)[C@H]1CC[C@@H](n2c(Nc3c(F)ccc(Cl)c3F)nc3cnc(NC4CCOCC4)nc32)CC1 [Example 67, (1s,4s)-4-(8-(3-chloro-2,6-difluorophenylamino)-2-(tetrahydro-2H-pyran-4-ylamino)-9H-purin-9-yl)cyclohexanecarboxamide] | > 1000 |
| NC(=O)[C@H]1CC[C@@H](n2c(Nc3c(Cl)cc(Cl)cc3Cl)nc3cnc(NC4CCCC4)nc32)CC1 [Example 68, (1s,4s)-4-(2-(cyclopentylamino)-8-(2,4,6-trichlorophenylamino)-9H-purin-9-yl)cyclohexanecarboxamide] | 500 to 1000 |
| Cc1cccc(Nc2nc3cnc(NC4CCOCC4)nc3n2[C@H]2CC[C@@H](C(N)=O)CC2)c1Cl [Example 69, (1s,4s)-4-(8-(2-chloro-3-methylphenylamino)-2-(tetrahydro-2H-pyran-4-ylamino)-9H-purin-9-yl)cyclohexanecarboxamide] | > 1000 |
| Cc1cc(Nc2nc3cnc(NC4CCOCC4)nc3n2[C@H]2CC[C@@H](C(N)=O)CC2)c(F)cc1Cl [Example 71, (1s,4s)-4-(8-(4-chloro-2-fluoro-5-methylphenylamino)-2-(tetrahydro-2H-pyran-4-ylamino)-9H-purin-9-yl)cyclohexanecarboxamide] | > 1000 |
| NC(=O)[C@H]1CC[C@@H](n2c(Nc3ccc(Cl)c(Cl)c3Cl)nc3cnc(NC4CCOCC4)nc32)CC1 [Example 73, (1s,4s)-4-(2-(tetrahydro-2H-pyran-4-ylamino)-8-(2,3,4-trichlorophenylamino)-9H-purin-9-yl)cyclohexanecarboxamide] | > 1000 |
| Cc1cc(F)cc(Cl)c1Nc1nc2cnc(NC3CCOCC3)nc2n1[C@H]1CC[C@@H](C(N)=O)CC1 [Example 74, (1s,4s)-4-(8-(2-chloro-4-fluoro-6-methylphenylamino)-2-(tetrahydro-2H-pyran-4-ylamino)-9H-purin-9-yl)cyclohexanecarboxamide] | > 1000 |
| Cc1cc(Cl)cc(F)c1Nc1nc2cnc(NC3CCOCC3)nc2n1[C@H]1CC[C@@H](C(N)=O)CC1 [Example 75, (1s,4s)-4-(8-(4-chloro-2-fluoro-6-methylphenylamino)-2-(tetrahydro-2H-pyran-4-ylamino)-9H-purin-9-yl)cyclohexanecarboxamide] | > 1000 |
| CO[C@H]1CC[C@H](Nc2ncc3nc(Nc4c(Cl)cc(Cl)cc4Cl)n([C@H]4CC[C@@H](C(N)=O)CC4)c3n2)CC1 [Example 77, (1s,4s)-4-(2-((1r,4r)-4-methoxycyclohexylamino)-8-(2,4,6-trichlorophenylamino)-9H-purin-9-yl)cyclohexanecarboxamide] | 500 to 1000 |
